Data: US9393271B2, “GHRH agonists for islet cell transplantation and function and the treatment of diabetes” (UNIVERSITY OF MIAMI, priority 2012, dated 2016)
Non-standard residues stand in square brackets, D forms with d. Residues, ends and D or L forms follow the SMILES beside them. *: point of attachment. Desaminotyrosyl = O=C(CCc1ccc(O)cc1)*; hArg = N=C(N)NCCCC[C@H](N)C(=O)O; Agmatine = N=C(N)NCCCCN*; Nle = CCCC[C@H](N)C(=O)O; Orn = NCCC[C@H](N)C(=O)O; Abu = CC[C@H](N)C(=O)O; Aoc = NCCCCCCCC(=O)O

Target: T1, GHRH receptor (human pituitary membrane homogenates) (Homo sapiens, UniProt Q02643)
T1 sequence (Q02643 23-423): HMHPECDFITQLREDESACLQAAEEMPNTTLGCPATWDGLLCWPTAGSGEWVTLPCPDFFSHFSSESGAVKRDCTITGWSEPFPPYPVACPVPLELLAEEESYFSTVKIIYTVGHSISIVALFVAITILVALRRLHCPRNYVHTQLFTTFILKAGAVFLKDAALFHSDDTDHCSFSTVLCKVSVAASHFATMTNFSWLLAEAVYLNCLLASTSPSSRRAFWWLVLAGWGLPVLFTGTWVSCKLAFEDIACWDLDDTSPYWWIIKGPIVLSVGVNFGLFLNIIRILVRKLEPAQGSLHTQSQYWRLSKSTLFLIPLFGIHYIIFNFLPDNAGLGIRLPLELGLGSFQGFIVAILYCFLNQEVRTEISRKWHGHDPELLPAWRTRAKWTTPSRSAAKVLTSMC
Test: GHRH receptor binding, ligand competition with 125I-labeled [His1,Nle27]hGHRH(1-32)NH2 (Table 6)
Settings: for Relative affinitiy (Binding potency) vs GHRH: GHRH(1-29) = 1; for Relative affinitiy (Binding potency) vs JI-38: JI-38 = 1

Relative affinitiy (Binding potency) vs GHRH | Relative affinitiy (Binding potency) vs JI-38 | Compound
74.0 | 24.4 | CCCC[C@H](NC(=O)[C@@H](NC(=O)[C@H](CC(=O)O)NC(=O)[C@H](CCC(N)=O)NC(=O)[C@H](CC(C)C)NC(=O)[C@H](CC(C)C)NC(=O)[C@H](CCCN)NC(=O)[C@H](CCCNC(=N)N)NC(=O)[C@H](C)NC(=O)[C@H](CO)NC(=O)[C@H](CC(C)C)NC(=O)[C@H](CCC(N)=O)NC(=O)[C@H](CC)NC(=O)[C@H](CC(C)C)NC(=O)[C@@H](NC(=O)[C@H](CCCN)NC(=O)[C@H](CCCNC(=N)N)NC(=O)[C@H](Cc1ccc(O)cc1)NC(=O)[C@H](CO)NC(=O)[C@H](CCC(N)=O)NC(=O)[C@@H](NC(=O)[C@H](Cc1ccccc1)NC(=O)[C@@H](NC(=O)[C@H](C)NC(=O)[C@H](CC(=O)O)NC(=O)[C@@H](C)NC(=O)CCc1ccc(O)cc1)[C@@H](C)CC)[C@@H](C)O)C(C)C)[C@@H](C)CC)C(=O)N[C@@H](CC(=O)O)C(=O)N[C@@H](CCCNC(=N)N)C(=O)NCCCCCCCC(N)=O [Peptide P-21304, [Dat^1, D-Ala^2, Gln^8, Orn^12, Abu^15, Orn^21, Nle^27, Asp^28, Amc^30]hGHRH(1-30)NH2] (Desaminotyrosyl-[dA]DAIFTQSYR[Orn]VL[Abu]QLSAR[Orn]LLQDI[Nle]DR[Aoc]-NH2)
84.5 | 27.8 | CCCC[C@H](NC(=O)[C@@H](NC(=O)[C@H](CC(=O)O)NC(=O)[C@H](CCC(N)=O)NC(=O)[C@H](CC(C)C)NC(=O)[C@H](CC(C)C)NC(=O)[C@H](CCCN)NC(=O)[C@H](CCCNC(=N)N)NC(=O)[C@H](C)NC(=O)[C@H](CO)NC(=O)[C@H](CC(C)C)NC(=O)[C@H](CCC(N)=O)NC(=O)[C@H](CC)NC(=O)[C@H](CC(C)C)NC(=O)[C@@H](NC(=O)[C@H](CCCN)NC(=O)[C@H](CCCNC(=N)N)NC(=O)[C@H](Cc1ccc(O)cc1)NC(=O)[C@H](CO)NC(=O)[C@@H](NC(=O)[C@@H](NC(=O)[C@H](Cc1ccccc1)NC(=O)[C@@H](NC(=O)[C@H](C)NC(=O)[C@H](CC(=O)O)NC(=O)[C@@H](C)NC(=O)CCc1ccc(O)cc1)[C@@H](C)CC)[C@@H](C)O)[C@@H](C)O)C(C)C)[C@@H](C)CC)C(=O)N[C@@H](CC(=O)O)C(=O)N[C@@H](CCCNC(=N)N)C(=O)N[C@@H](CCCCNC(=N)N)C(N)=O [Peptide P-23254, [Dat^1, D-Ala^2, Thr^8, Orn^12, Abu^15, Orn^21, Nle^27, Asp^28, Har^30]hGHRH(1-30)NH2] (Desaminotyrosyl-[dA]DAIFTTSYR[Orn]VL[Abu]QLSAR[Orn]LLQDI[Nle]DR[hArg]-NH2)
148.0 | 48.7 | CCCC[C@H](NC(=O)[C@@H](NC(=O)[C@H](CC(=O)O)NC(=O)[C@H](CCC(N)=O)NC(=O)[C@H](CC(C)C)NC(=O)[C@H](CC(C)C)NC(=O)[C@H](CCCN)NC(=O)[C@H](CCCNC(=N)N)NC(=O)[C@H](C)NC(=O)[C@H](CO)NC(=O)[C@H](CC(C)C)NC(=O)[C@H](CCC(N)=O)NC(=O)[C@H](CC)NC(=O)[C@H](CC(C)C)NC(=O)[C@@H](NC(=O)[C@H](CCCN)NC(=O)[C@H](CCCNC(=N)N)NC(=O)[C@H](Cc1ccc(O)cc1)NC(=O)[C@H](CO)NC(=O)[C@H](C)NC(=O)[C@@H](NC(=O)[C@H](Cc1ccccc1)NC(=O)[C@@H](NC(=O)[C@H](C)NC(=O)[C@H](CC(=O)O)NC(=O)[C@@H](C)NC(=O)CCc1ccc(O)cc1)[C@@H](C)CC)[C@@H](C)O)C(C)C)[C@@H](C)CC)C(=O)N[C@@H](CC(=O)O)C(=O)N[C@@H](CCCNC(=N)N)C(=O)N[C@@H](CCCCNC(=N)N)C(N)=O [Peptide P-23256, [Dat^1, D-Ala^2, Ala^8, Orn^12, Abu^15, Orn^21, Nle^27, Asp^28, Har^30]hGHRH(1-30)NH2] (Desaminotyrosyl-[dA]DAIFTASYR[Orn]VL[Abu]QLSAR[Orn]LLQDI[Nle]DR[hArg]-NH2)
42.3 | 13.9 | CCCC[C@H](NC(=O)[C@@H](NC(=O)[C@H](CC(=O)O)NC(=O)[C@H](CCC(N)=O)NC(=O)[C@H](CC(C)C)NC(=O)[C@H](CC(C)C)NC(=O)[C@H](CCCN)NC(=O)[C@H](CCCNC(=N)N)NC(=O)[C@H](C)NC(=O)[C@H](CO)NC(=O)[C@H](CC(C)C)NC(=O)[C@H](CCC(N)=O)NC(=O)[C@H](CC)NC(=O)[C@H](CC(C)C)NC(=O)[C@@H](NC(=O)[C@H](CCCN)NC(=O)[C@H](CCCNC(=N)N)NC(=O)[C@H](Cc1ccc(O)cc1)NC(=O)[C@H](CO)NC(=O)[C@H](CC(N)=O)NC(=O)[C@@H](NC(=O)[C@H](Cc1ccccc1)NC(=O)[C@@H](NC(=O)[C@H](C)NC(=O)[C@H](CC(=O)O)NC(=O)[C@@H](C)NC(=O)CCc1ccc(O)cc1)[C@@H](C)CC)[C@@H](C)O)C(C)C)[C@@H](C)CC)C(=O)N[C@@H](CC(=O)O)C(=O)N[C@@H](CCCNC(=N)N)C(=O)N[C@@H](CCCCNC(=N)N)C(N)=O [Peptide P-23252, [Dat^1-D-Ala^2, Orn^12, Abu^15, Orn^21, Nle^27, Asp^28, Har^30]hGHRH(1-30)NH2] (Desaminotyrosyl-[dA]DAIFTNSYR[Orn]VL[Abu]QLSAR[Orn]LLQDI[Nle]DR[hArg]-NH2)

Compound | Relative affinitiy (Binding potency) vs GHRH | Relative affinitiy (Binding potency) vs JI-38
CCCC[C@H](NC(=O)[C@@H](NC(=O)[C@H](CC(=O)O)NC(=O)[C@H](CCC(N)=O)NC(=O)[C@H](CC(C)C)NC(=O)[C@H](CC(C)C)NC(=O)[C@H](CCCN)NC(=O)[C@H](CCCNC(=N)N)NC(=O)[C@H](C)NC(=O)[C@H](CO)NC(=O)[C@H](CC(C)C)NC(=O)[C@H](CCC(N)=O)NC(=O)[C@H](CC)NC(=O)[C@H](CC(C)C)NC(=O)[C@@H](NC(=O)[C@H](CCCN)NC(=O)[C@H](CCCNC(=N)N)NC(=O)[C@H](Cc1ccc(O)cc1)NC(=O)[C@H](CO)NC(=O)[C@@H](NC(=O)[C@@H](NC(=O)[C@H](Cc1ccccc1)NC(=O)[C@@H](NC(=O)[C@H](C)NC(=O)[C@H](CC(=O)O)NC(=O)[C@H](C)NC(=O)CCc1ccc(O)cc1)[C@@H](C)CC)[C@@H](C)O)[C@@H](C)O)C(C)C)[C@@H](C)CC)C(=O)N[C@@H](CC(=O)O)C(=O)NCCCCNC(=N)N [JI-36, reference compound] (Desaminotyrosyl-ADAIFTTSYR[Orn]VL[Abu]QLSAR[Orn]LLQDI[Nle]D-Agmatine; N-terminus and C-terminus assumed) | 3.25 | 
CCCC[C@H](NC(=O)[C@@H](NC(=O)[C@H](CC(=O)O)NC(=O)[C@H](CCC(N)=O)NC(=O)[C@H](CC(C)C)NC(=O)[C@H](CC(C)C)NC(=O)[C@H](CCCN)NC(=O)[C@H](CCCNC(=N)N)NC(=O)[C@H](C)NC(=O)[C@H](CO)NC(=O)[C@H](CC(C)C)NC(=O)[C@H](CCC(N)=O)NC(=O)[C@H](CC)NC(=O)[C@H](CC(C)C)NC(=O)[C@@H](NC(=O)[C@H](CCCN)NC(=O)[C@H](CCCNC(=N)N)NC(=O)[C@H](Cc1ccc(O)cc1)NC(=O)[C@H](CO)NC(=O)[C@H](CC(N)=O)NC(=O)[C@@H](NC(=O)[C@H](Cc1ccccc1)NC(=O)[C@@H](NC(=O)[C@H](C)NC(=O)[C@H](CC(=O)O)NC(=O)[C@H](C)NC(=O)CCc1ccc(O)cc1)[C@@H](C)CC)[C@@H](C)O)C(C)C)[C@@H](C)CC)C(=O)N[C@@H](CC(=O)O)C(=O)NCCCCNC(=N)N [JI-34, reference compound] (Desaminotyrosyl-ADAIFTNSYR[Orn]VL[Abu]QLSAR[Orn]LLQDI[Nle]D-Agmatine; N-terminus and C-terminus assumed) | 4.32 | 
